Experimental data: patent publication US7919495B2, “Pyridyl non-aromatic nitrogen-containing heterocyclic-1-carboxylate compound” (Astellas Pharma, Inc., priority 2005, dated 2011)

Legend:
[1] = molecular target: T1, FAAH in human bladder epithelial cancer-derived cell line 5678 cells (Homo sapiens, UniProt O00519); assay: Screening for FAAH activity-inhibiting substance with human bladder epithelial cancer-derived cell (IC50, Table 64); format: cell-based
T1 construct: host or cells: human bladder epithelial cancer-derived cell line ('5678' [sic], HTB-9)
T1 sequence (O00519 1-579): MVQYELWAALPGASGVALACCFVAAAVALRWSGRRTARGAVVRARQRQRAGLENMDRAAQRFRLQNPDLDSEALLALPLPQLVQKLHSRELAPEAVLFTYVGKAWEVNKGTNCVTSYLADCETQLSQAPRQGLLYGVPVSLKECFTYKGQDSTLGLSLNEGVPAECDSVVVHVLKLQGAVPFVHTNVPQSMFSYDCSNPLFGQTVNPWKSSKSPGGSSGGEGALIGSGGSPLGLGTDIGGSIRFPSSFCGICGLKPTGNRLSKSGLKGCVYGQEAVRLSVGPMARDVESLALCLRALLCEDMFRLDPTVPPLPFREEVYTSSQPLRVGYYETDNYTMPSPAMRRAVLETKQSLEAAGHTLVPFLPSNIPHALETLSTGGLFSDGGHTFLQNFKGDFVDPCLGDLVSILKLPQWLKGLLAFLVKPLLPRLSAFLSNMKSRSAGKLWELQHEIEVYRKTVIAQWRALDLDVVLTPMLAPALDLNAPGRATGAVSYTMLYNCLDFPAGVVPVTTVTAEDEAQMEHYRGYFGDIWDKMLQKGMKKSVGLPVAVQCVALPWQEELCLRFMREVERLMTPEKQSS
Protocol: Screening for FAAH Activity-Inhibiting Substance with Human Bladder Epithelial Cancer-Derived Cell
(1) Screening for FAAH Activity-Inhibiting Substance:
Human bladder epithelial cancer-derived cell line […] cells (HTB-9; ATCC) were seeded on a 48-well cell culture plate in an amount of 1×10^5 cell/well, using 10% fetal bovine serum (HyClone)-containing RPMI1640 medium (Invitrogen). After incubated at 37° C. for at least 12 hours, the cells were washed with 400 μl/well of a buffer (Hank's Balanced Salt Solution, 20 mM Hepes-NaOH (pH 7.4)). A test substance dissolved in DMSO was added to a substrate solution (the above buffer containing 3 μCi/ml radiolabeled anandamide (Anandamide [ethanolamine 1-3H]) and 10 μM anandamide) so as to have a concentration of from 0.003 nM to 30 nM. As a control, DMSO alone was added. 100 μl/well of the substrate solution was added to the above cells, and incubated in a CO2 incubator at 37° C. for 30 minutes. Next, the cell culture plate was transferred onto ice, and the substrate solution was removed by suction; and 75 μl/well of a cytolytic solution (the above buffer containing 0.5% Triton X-100, and 10 μM of FAAH-inhibitory activity-having compound, 3′-carbamoylbiphenyl-3-yl cyclohexylcarbamate (URB597; Cayman chemical; Kathuria et al., Nature Med., Vol. 9, pp. 76-81, 2003)) was added thereto, followed by stirring. The resulting cell lysate in every well was individually transferred into a 1.5 ml sample tube, to which was added 150 μl of 1:1 (by volume) chloroform/methanol solution, followed by vortexing. This was centrifuged (15000 rpm, 2 minutes), whereby the decomposed product, ethanolamine (ethanolamine 1-^3H) was separated in the upper layer (water/methanol layer) and the unreacted radiolabeled anandamide was in the lower layer (chloroform layer). 25 μl of the upper layer was transferred into a 96-well organic solvent-resistant white microplate (PicoPlate-96; Perkin Elmer), 150 μl of Microscint-20 (Perkin Elmer) was added thereto, and this was measured with a microplate scintillation counter (TopCount™; Beckman). As compared with the control, the substance that gave a decreased value was selected as an FAAH activity-inhibiting substance.
(2) Measurement of IC50 Value of FAAH Activity-Inhibiting Substance:
A test compound dissolved in DMSO to have a concentration of 10 mM was dissolved in the substrate solution so as to have a varying concentration of from 0.003 nM to 30 μM. According to the method mentioned above, the compound was analyzed for its influence on FAAH activity. As a negative control, DMSO was used. As a positive control, URB597 was added to the substrate solution to have a concentration of 10 μM. Based on the measured value of the positive control, 0%, and on the measured value of the negative control, 100%, IC50 value of the test substance was obtained.

[2] = molecular target: FAAH (rat brain homogenate) (Rattus norvegicus, UniProt P97612); assay: biochemical
[3] = tested on: CPA-induced urinary frequency in rat; assay: animal or person; format: in vivo; conditions: po, 48 h, read-out: effective dose (increase of reduced effective bladder capacity)

FAAH (rat brain homogenate), sequence (P97612 whole entry): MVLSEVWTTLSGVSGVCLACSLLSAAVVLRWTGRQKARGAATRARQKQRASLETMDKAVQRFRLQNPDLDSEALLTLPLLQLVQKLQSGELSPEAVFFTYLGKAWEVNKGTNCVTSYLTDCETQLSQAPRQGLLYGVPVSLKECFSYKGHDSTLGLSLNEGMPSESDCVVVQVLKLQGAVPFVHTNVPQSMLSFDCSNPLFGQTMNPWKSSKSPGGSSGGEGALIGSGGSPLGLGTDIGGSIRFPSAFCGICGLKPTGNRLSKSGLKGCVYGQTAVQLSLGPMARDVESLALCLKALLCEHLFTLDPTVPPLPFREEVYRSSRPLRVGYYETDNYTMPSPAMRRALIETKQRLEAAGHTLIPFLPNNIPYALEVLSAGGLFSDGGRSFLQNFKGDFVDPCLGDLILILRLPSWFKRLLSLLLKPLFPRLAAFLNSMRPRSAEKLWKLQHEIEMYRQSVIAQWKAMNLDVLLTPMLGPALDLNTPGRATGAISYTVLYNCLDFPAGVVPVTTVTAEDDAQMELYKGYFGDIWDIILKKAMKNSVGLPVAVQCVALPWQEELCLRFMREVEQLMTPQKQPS

| SMILES | IC50 [1] [nM] | IC50 [2] [nM] | minimal effective dose [3] [mg/kg] |
| --- | --- | --- | --- |
| N#Cc1cccc(COc2ccc(C(=O)N3CCN(C(=O)Oc4cccnc4)CC3)cc2)c1 [Example 151] | 0.17 | 27 |  |
| O=C(O)c1cncc(OC(=O)N2CCC(Oc3ccc(OCCC4CCCCC4)cc3)CC2)c1 [Example 228] | 0.22 | 0.19 | 1 |
| O=C(O)c1cncc(OC(=O)N2CCC(Oc3ccc(OCc4cccc(F)c4)cc3)CC2)c1 [Example 218, 5-{[(4-{4-[(3-fluorobenzyl)oxy]phenoxy}piperidin-1-yl)carbonyl]oxy}nicotinic acid] | 0.44 |  | 3 |
| NC(=O)c1cncc(OC(=O)N2CCC(CCc3cccc(C(=O)N4CCCC4)c3)CC2)c1 [Example 359] | 0.52 | 1.3 | 1 |
| O=C(Oc1cccnc1)N1CCC(Oc2ccc(OCc3cccc(F)c3)cc2)CC1 [Example 2, (pyridin-3-yl) 4-{4-[(3-fluorobenzyl)oxy]phenoxy}piperidine-1-carboxylate] | 0.11 | 0.14 | 3 |
| Cc1cccc(N2CCC(CCCC3CCN(C(=O)Oc4cncc(C(=O)O)c4)CC3)CC2)n1 [Example 313] | 0.89 |  | 1 |
